Target: GilOI (Streptomyces griseoflavus, UniProt Q7X2G6)
Experiment: cofactor content of the purified enzyme
Format: binding

With `Cc1cc2nc3c(=O)[nH]c(=O)nc-3n(C[C@H](O)[C@H](O)[C@H](O)COP(=O)(O)OP(=O)(O)OC[C@H]3O[C@@H](n4cnc5c(N)ncnc54)[C@H](O)[C@@H]3O)c2cc1C` [flavin adenine dinucleotide] the “cofactor content of the purified enzyme (Figure S3)” value was “GilOI and GilOIV are oxygenases that contain flavin adenine dinucleotide (FAD, Figure S3”.

Reference: paper PMC3343456 (Angewandte Chemie (International ed. in English), 2011)
